Source: US20080102497A1, “ENZYMATIC HYDROLYSIS OF STARCH” (priority 2006, published 2008)
Several values for one entry are separate records, joined by “and”; a condition that tells them apart may be missing. Equal entries are not always repeated. Where two headings read alike, the source gives them in different places.

How the values were obtained:
[1] = tested on: enzyme mixture of purified glucoamylase from mushroom and purified α-amylase from barley; test: hydrolysis of raw corn starch by enzyme mixture, reducing sugar by DNSA; assay type: biochemical; conditions: summary of Table 2
Method: Enzyme mixture was also pre-incubated with 10 mM Fe^++, Cu^++, Ca^++, Mg^++, or disodium ethylenediamine-tetraacetic acid (EDTA). Thereafter, 40 μl of each pre-incubation solution was added to 15 mg raw corn starch, and the reaction mixture incubated at 37° C. for 20 minutes. The control reaction mixture contained substrate, enzyme, and buffer but no additional metal ions. The starch hydrolysis reaction was stopped by combining the reaction mixture with a solution containing 3,5 dinitrosalicylic acid (DNSA) and heating for 30 min at 85° C. The absorbance of the control and test samples was measured at 562 nm to monitor the amount of reducing sugar in each sample.

[2] = biological target: T1, α-amylase from Bacillus licheniformis (Bacillus licheniformis, UniProt P06278); test: hydrolysis of cooked starches from different botanical sources; assay type: biochemical; conditions: pH 5.2, 37° C., 10 min
Method: The control reaction mixture contained enzyme, buffer, and starch but no manganese ion. The starch hydrolysis reaction was stopped by combining the reaction mixture with 3,5 dinitrosalicylic acid (DNSA) and heating for 30 min at 85° C. The absorbance of the control and test samples was measured at 562 nm to monitor the amount of reducing sugar in each sample.

[3] = biological target: T1, α-amylase from Bacillus licheniformis; test: hydrolysis of cooked corn starch varieties; assay type: biochemical; conditions: pH 5.2, 37° C., 10 min
Method: The separate reaction mixtures were incubated at 37° C. for 10 minutes. The control reaction mixture contained enzyme, buffer, and starch but no manganese ion. The starch hydrolysis reaction was stopped by combining the reaction mixture with a solution containing DNSA and heating for 30 min at 85° C. The absorbance of the control and test samples was measured at 562 nm to monitor the amount of reducing sugar in each sample.

[4] = biological target: α-amylase from Bacillus amyloliquefaciens (Bacillus amyloliquefaciens, UniProt P00692); test: hydrolysis of cooked dent corn starch; assay type: biochemical; conditions: 0.1 mM Mn^++; cooked dent corn starch 0.5%; pH 5.2; 37° C., 10 min
[5] = biological target: glucoamylase from Aspergillus Niger (Aspergillus niger, UniProt P69328); conditions: cooked dent corn starch 0.5%, pH 5.2, 37° C., 10 min
Method: The separate reaction mixtures were incubated at 37° C. for 10 minutes. The control reaction mixtures contained enzyme, buffer, and starch but no manganese ion. The starch hydrolysis reaction was stopped by combining the reaction mixture with a solution containing DNSA and heating for 30 min at 85° C. The absorbance of the control and test samples was measured at 562 nm to monitor the amount of reducing sugar in each sample.

T1 sequence (P06278 30-512): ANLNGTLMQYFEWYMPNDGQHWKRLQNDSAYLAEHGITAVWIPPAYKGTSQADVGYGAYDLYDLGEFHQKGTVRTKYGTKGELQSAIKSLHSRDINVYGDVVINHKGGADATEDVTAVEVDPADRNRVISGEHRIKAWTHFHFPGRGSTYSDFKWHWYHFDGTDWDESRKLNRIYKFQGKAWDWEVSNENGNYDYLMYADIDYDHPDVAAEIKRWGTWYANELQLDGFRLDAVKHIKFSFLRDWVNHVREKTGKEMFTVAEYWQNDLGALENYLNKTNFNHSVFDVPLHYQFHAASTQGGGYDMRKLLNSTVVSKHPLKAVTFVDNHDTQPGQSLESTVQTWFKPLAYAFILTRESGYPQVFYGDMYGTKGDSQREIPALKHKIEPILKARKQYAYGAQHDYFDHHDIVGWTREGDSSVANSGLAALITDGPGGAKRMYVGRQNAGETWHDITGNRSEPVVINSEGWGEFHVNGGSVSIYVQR
Chain of glucoamylase from Aspergillus Niger (P69328 25-640): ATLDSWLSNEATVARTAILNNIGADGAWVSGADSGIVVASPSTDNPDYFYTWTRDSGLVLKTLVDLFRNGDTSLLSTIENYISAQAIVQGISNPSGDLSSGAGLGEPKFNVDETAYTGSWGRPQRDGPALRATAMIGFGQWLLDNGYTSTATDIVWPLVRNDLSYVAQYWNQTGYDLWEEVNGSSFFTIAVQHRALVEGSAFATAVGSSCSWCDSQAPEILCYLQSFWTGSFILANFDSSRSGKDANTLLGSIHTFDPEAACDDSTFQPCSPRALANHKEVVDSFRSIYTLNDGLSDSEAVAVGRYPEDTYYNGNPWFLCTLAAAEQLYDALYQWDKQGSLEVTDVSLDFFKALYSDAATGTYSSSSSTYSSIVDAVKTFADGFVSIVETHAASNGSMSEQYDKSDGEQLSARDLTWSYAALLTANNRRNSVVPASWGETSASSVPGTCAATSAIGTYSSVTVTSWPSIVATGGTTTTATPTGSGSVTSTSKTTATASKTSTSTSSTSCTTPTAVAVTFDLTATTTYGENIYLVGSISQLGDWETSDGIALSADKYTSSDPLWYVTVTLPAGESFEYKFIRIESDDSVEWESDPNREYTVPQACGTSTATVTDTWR
Chain of α-amylase from Bacillus amyloliquefaciens (P00692 32-514): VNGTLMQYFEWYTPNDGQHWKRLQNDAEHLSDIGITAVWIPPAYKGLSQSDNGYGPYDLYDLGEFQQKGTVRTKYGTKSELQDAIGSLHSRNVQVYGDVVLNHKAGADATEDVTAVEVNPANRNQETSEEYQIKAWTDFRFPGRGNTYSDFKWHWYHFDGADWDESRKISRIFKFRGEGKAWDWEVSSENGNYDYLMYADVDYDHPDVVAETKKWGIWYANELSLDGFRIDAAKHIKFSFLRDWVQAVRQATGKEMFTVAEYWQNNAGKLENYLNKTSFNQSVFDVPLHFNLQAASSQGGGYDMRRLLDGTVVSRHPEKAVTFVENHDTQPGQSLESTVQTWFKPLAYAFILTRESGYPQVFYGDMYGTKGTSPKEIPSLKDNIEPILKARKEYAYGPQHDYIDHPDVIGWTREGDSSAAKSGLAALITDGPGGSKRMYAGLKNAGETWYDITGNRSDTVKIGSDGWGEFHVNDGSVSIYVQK

What does the source list for `[Mn+2]` [Mn^++, manganese ions]?
effect on hydrolysis of raw corn starch (in words) [1]: enhances the hydrolysis of raw corn starch; Relative Activity ([2]; 0.01 mM Mn^++, cooked potato starch 0.5%): 109.9%; Relative Activity ([2]; 0.01 mM Mn^++, cooked rice starch 0.5%): 115.5%; Relative Activity ([2]; 0.01 mM Mn^++, cooked soluble potato starch 0.5%): 118.3%; Relative Activity ([2]; 0.1 mM Mn^++, cooked barley starch 0.5%): 129.2%; Relative Activity ([2]; 0.1 mM Mn^++, cooked pea starch 0.5%): 129.5%; Relative Activity ([2]; 0.1 mM Mn^++, cooked potato starch 0.5%): 117.5%; Relative Activity ([2]; 0.1 mM Mn^++, cooked rice starch 0.5%): 126.0%; Relative Activity ([2]; 0.1 mM Mn^++, cooked soluble potato starch 0.5%): 147.6%; Relative Activity ([2]; 0.1 mM Mn^++, cooked tapioca starch 0.5%): 119.2%; Relative Activity ([2]; 0.1 mM Mn^++, cooked wheat starch 0.5%): 118.2%; Relative Activity ([2]; 1 mM Mn^++, cooked pea starch 0.5%): 143.9%; Relative Activity ([2]; 1 mM Mn^++, cooked potato starch 0.5%): 128.7%; Relative Activity ([2]; 1 mM Mn^++, cooked rice starch 0.5%): 129.6%; Relative Activity ([2]; 1 mM Mn^++, cooked soluble potato starch 0.5%): 142.0%; Relative Activity ([2]; 1 mM Mn^++, cooked tapioca starch 0.5%): 121.5%; Relative Activity ([2]; 1 mM Mn^++, cooked wheat starch 0.5%): 153.0%; Relative Activity ([2]; 10 mM Mn^++, cooked barley starch 0.5%): 142.2%; Relative Activity ([2]; 10 mM Mn^++, cooked pea starch 0.5%): 182.3%; Relative Activity ([2]; 10 mM Mn^++, cooked potato starch 0.5%): 160.2%; Relative Activity ([2]; 10 mM Mn^++, cooked rice starch 0.5%): 157.7%; Relative Activity ([2]; 10 mM Mn^++, cooked wheat starch 0.5%): 142.1%; Relative Activity ([3]; 0.01 mM Mn^++, cooked high-amylose V corn starch 0.5%): 116.5%; Relative Activity ([3]; 0.01 mM Mn^++, cooked soluble corn starch 0.5%): 118.3%; Relative Activity ([3]; 0.01 mM Mn^++, cooked waxy corn starch 0.5%): 118.3%; Relative Activity ([3]; 0.1 mM Mn^++, cooked dent corn starch 0.5%): 124.4%; Relative Activity ([3]; 0.1 mM Mn^++, cooked high-amylose V corn starch 0.5%): 135.5%; Relative Activity ([3]; 0.1 mM Mn^++, cooked soluble corn starch 0.5%): 128.1%; Relative Activity ([3]; 0.1 mM Mn^++, cooked waxy corn starch 0.5%): 126.9%; Relative Activity ([3]; 1 mM Mn^++, cooked dent corn starch 0.5%): 128.7%; Relative Activity ([3]; 1 mM Mn^++, cooked soluble corn starch 0.5%): 135.8%; Relative Activity ([3]; 10 mM Mn^++, cooked dent corn starch 0.5%): 147.8%; Relative Activity ([3]; 10 mM Mn^++, cooked high-amylose V corn starch 0.5%): 160.1%; Relative Activity ([3]; 10 mM Mn^++, cooked soluble corn starch 0.5%): 162.7%; Relative Activity ([3]; 10 mM Mn^++, cooked waxy corn starch 0.5%): 155.8%; Relative Activity [4]: 121.0% and 120.4%; Relative Activity ([5]; 0.01 mM Mn^++): 113.3%; Relative Activity ([5]; 0.1 mM Mn^++): 126.1%; Relative Activity ([5]; 1 mM Mn^++): 148.4%; Relative Activity ([5]; 10 mM Mn^++): 186.9%
